From patent US20170334899A1, “AMINO-SUBSTITUTED ISOTHIAZOLES” (Bayer Pharma Aktiengesellschaft, priority 2014, published 2017)
Where “and” joins values, the source holds several entries; their conditions need not be identical. Equal values may be shown once.

These compounds were tested against T1, human kinase Mps-1 (Homo sapiens, UniProt P33981) (assay: Mps-1 kinase assay (TR-FRET)). Details: Mps-1 TR-FRET kinase assay; avg; read-out: Mps1 avg (IC50 [mol/l]).
T1 construct: N-terminally GST-tagged human full length recombinant Mps-1 kinase; GST (N); purchased Invitrogen, Karslruhe, Germany PV4071
T1 sequence (P33981 1-857): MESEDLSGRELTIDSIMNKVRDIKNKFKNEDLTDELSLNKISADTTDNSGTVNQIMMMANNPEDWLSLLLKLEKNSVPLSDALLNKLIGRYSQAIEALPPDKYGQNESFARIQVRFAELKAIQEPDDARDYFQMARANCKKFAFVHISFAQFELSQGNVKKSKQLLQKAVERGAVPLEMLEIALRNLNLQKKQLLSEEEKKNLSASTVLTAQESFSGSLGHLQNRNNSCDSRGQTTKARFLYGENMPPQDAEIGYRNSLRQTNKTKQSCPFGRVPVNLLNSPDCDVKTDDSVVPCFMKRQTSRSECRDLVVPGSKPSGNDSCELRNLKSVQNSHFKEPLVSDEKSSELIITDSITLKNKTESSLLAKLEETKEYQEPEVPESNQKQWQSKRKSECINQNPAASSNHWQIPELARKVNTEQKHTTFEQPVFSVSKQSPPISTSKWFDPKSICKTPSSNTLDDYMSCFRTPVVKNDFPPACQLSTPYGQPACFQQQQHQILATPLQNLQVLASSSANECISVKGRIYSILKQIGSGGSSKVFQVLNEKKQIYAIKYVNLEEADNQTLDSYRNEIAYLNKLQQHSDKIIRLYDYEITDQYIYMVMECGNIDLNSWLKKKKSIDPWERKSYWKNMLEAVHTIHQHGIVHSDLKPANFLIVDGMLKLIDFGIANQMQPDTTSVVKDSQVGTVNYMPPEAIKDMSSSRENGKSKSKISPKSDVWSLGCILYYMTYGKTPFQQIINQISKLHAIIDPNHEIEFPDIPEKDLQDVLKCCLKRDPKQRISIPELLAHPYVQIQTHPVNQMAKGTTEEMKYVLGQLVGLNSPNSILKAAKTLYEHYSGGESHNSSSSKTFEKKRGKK
Type: biochemical
Summary of the method: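 GST-tagged full-length recombinant human Mps-1 (~0.5 nM) pre-incubated 15 min with compound, then reacted 60 min at 22 °C with 10 μM ATP and 1 μM biotinylated peptide in Hepes pH 7.7 buffer. EDTA-stopped; TR-FRET (Eu anti-phospho-Ser/Thr to SA-XLent) 665/620 nm ratio normalised to no-inhibitor and no-enzyme controls.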

| SMILES | IC50 |
| --- | --- |
| Cc1nsc(Nc2cnc(C(F)(F)F)cn2)c1C(=O)Nc1ccc(OCCNCC(F)F)nc1 [Example 305, N-(6-{2-[(2,2-difluoroethyl)amino]ethoxy}pyridin-3-yl)-3-methyl-5-{[5-(trifluoromethyl)pyrazin-2-yl]amino}-1,2-thiazole-4-carboxamide] | ≥ 20 µM |
| Cc1nsc(Nc2cnc(C(F)(F)F)cn2)c1C(=O)Nc1ccc(F)c(OCC2CCN(CCF)C2)c1 (stereo not drawn) [Example 317, N-(4-fluoro-3-{[1-(2-fluoroethyl)pyrrolidin-3-yl]methoxy}phenyl)-3-methyl-5-{[5-(trifluoromethyl)pyrazin-2-yl]amino}-1,2-thiazole-4-carboxamide] | > 20 µM |
| CCNC(=O)c1cccc(NC(=O)c2c(C)nsc2Nc2ccc(C#N)cn2)c1 [Example 252, 5-[(5-cyanopyridin-2-yl)amino]-N-[3-(ethylcarbamoyl)phenyl]-3-methyl-1,2-thiazole-4-carboxamide] | > 20 µM |

Further lines, results first:

| IC50 | SMILES |
| --- | --- |
| > 20 µM | Cc1nsc(Nc2cnc(C(F)(F)F)cn2)c1C(=O)Nc1ccc(C(=O)N2CCN(C)CC2)cc1 [Example 262, 3-methyl-N-{4-[(4-methylpiperazin-1 yl)carbonyl]phenyl}-5-{[5-(trifluoromethyl)pyrazin-2-yl]amino}-1,2-thiazole-4-carboxamide] |
| > 20 µM and 11 µM | Cc1nsc(Nc2cncc(C(F)(F)F)n2)c1C(=O)Nc1ccc(C(=O)NC2CN(CC(F)(F)F)C2)cc1 [Example 280, 3-methyl-N-(4-{[1-(2,2,2-trifluoroethyl)azetidin-3-yl]carbamoyl}phenyl)-5-{[6-(trifluoromethyl)pyrazin-2-yl]amino}-1,2-thiazole-4-carboxamide] |
| ≥ 20 µM | CCN1CCC(Oc2ccc(NC(=O)c3c(C)nsc3Nc3cc(C#N)ccn3)cn2)CC1 [Example 26, 5-[(4-Cyanopyridin-2-yl)amino]-N-{6-[(1-ethylpiperidin-4-yl)oxy]pyridin-3-yl}-3-methyl-1,2-thiazole-4-carboxamide] |
